Reference: US20160090578A1, “ENZYMES […] GLYCOSYLATION OF POLYPHENOLS” (priority 2013, published 2016)

What was measured:
GtfC = assay: Biotransformation assays with E. coli expressing recombinant GtfC, quantified by TLC; format: cell-based, Elbe river sediment metagenome; settings: for Conversion (%): whole-cell biotransformation, 50 mL, 50 mM sodium phosphate buffer pH 7.0, 1% (w/v) glucose, 200 μM flavonoid, 30° C., triplicate; for Conversion in GtfC biotransformation (in words): whole-cell biotransformation with E. coli expressing GtfC
Procedure: The supernatant was applied in TLC analysis.
(§1) The supernatant transferred into HPLC flat bottom vials was used for TLC analysis. Samples of 20 μL were applied on 20×10 cm^2 (HP)TLC silica 60 F254 plates (Merck KGaA, Darmstadt, Germany) versus 200 pmol of reference flavonoids. To avoid carryover of substances, i.e. prevent false positives, samples were spotted with double syringe rinsing in between by the ATS 4. The sampled TLC plates were developed in ethyl acetate/acetic acid/formic acid/water 100:11:11:27 (‘Universal Pflanzenlaufmittel’) (41). After separation the TLC plates were dried in an oven at 80° C. for five minutes. The absorbance of the separated bands was determined densitometrically depending on the absorbance maximum of the applied educt substances at 285 to 370 nm using the deuterium lamp in a TLC Scanner 3 (CAMAG, Muttenz, Switzerland). Subsequently, the substances on developed TLC plates were derivatized by dipping the plates in a methanolic solution of 1% (w/v) diphenyl boric acid β-aminoethyl ester (DPBA) (42) for one second using a Chromatogram Immersion Device (CAMAG, Muttenz, Switzerland) followed by drying the TLC plates in hot air with a fan. After two minutes the bands were visualized at 365 nm with a UV hand lamp and photographed. Alternatively, fluorescence of the bands was determined densitometrically by the TLC Scanner 3 depending on the absorbance maximum of the applied substances at 320 to 370 nm.
(§2) Samples of 20 μL were sprayed by an ATS 4 (CAMAG, Muttenz, Switzerland) on HPTLC silica 60 F254 plates (Merck KGaA, Darmstadt, Germany) versus different amounts of respective standard educt and product substances. TLC plates were developed, dried, derivatized and analyzed as stated above. Regression curves were calculated from the peak area of the applied reference substances to determine the amount of produced and residual flavonoids.

MgtC = format: cell-based, Bacillus sp. BCG+1; settings: E. coli DH5α pDrive::mgtC, whole cell catalysis
MgtW = settings: E. coli DH5α pDrive::mgtW, whole cell catalysis
Procedure: (§3) For the detection of flavonoid modifications in bacteria a biotransformation approach was used. Cultures were grown in LB medium with appropriate antibiotic overnight. Expression cultures were prepared as stated above for overproduction of enzymes. The cells were sedimented by centrifugation at 4,500 g and resuspended in 50 mM sodium phosphate buffer pH 7 supplemented with 1% (w/v) α-D-glucose. Biotransformations with a final concentration of 100 μM flavonoid inoculated from stock solutions of 100 mM in DMSO, i.e. 0.1%, were incubated in Erlenmeyer flasks at 30° C. and 175 rpm up to 24 hours. Samples of 4 mL were withdrawn and acidified with 100 μL H3PO4 aq for extraction in 2 mL ethyl acetate. They were shaken for 1 minute and phase separated by centrifugation at 2,000 g and 4° C. The supernatant was applied in TLC analysis. For quantification, samples of 100 μL were taken and dissolved 1/10 in ethyl acetate/acetic acid 3:1. These acidified ethyl acetate samples were centrifuged at 10,000 g. The supernatant was used for quantitative TLC analysis as stated below.

MgtT = settings: E. coli DH5α pDrive::mgtT, whole cell catalysis
Procedure: as §3

MgtB = assay: Biocatalytic reactions with purified recombinant His-tagged MgtB and UDP-glucose, quantified by TLC; format: biochemical, Bacillus sp. HH1500; settings: for Acceptor substrate modification by His10-MgtB (in words): 500 μM UDP-α-D-glucose as donor, 100 μM acceptor substrate; for Conversion (%): 1 mL, 37° C., 2 hours, triplicate, 500 μM UDP-glucose, 100 μM flavonoid, 5 μg/mL purified recombinant MgtB
Procedure: as §1, §2

| SMILES | Conversion (%) (GtfC) | Reaction in biotransformation with MgtC (MgtC) | Acceptor substrate modification by His10-MgtB (in words) (MgtB) | Conversion (%) (MgtB) | also measured |
| --- | --- | --- | --- | --- | --- |
| COc1cc(O)c(CC=C(C)C)c(O)c1C(=O)/C=C/c1ccc(O)cc1 [Xanthohumol] | 52 |  |  |  |  |
| O=c1cc(-c2ccc(O)cc2)oc2cc(O)cc(O)c12 [apigenin] |  | shown |  |  |  |
| Oc1ccc(/C=C/c2cc(O)cc(O)c2)cc1 [t-Resveratrol] | 96 |  |  |  |  |
| COc1cc([C@@H]2CC(=O)c3c(O)cc(O)cc3O2)ccc1O [homoeriodytiol] |  | shown |  |  | Reaction in biotransformation with MgtW (MgtW): shown; Reaction in biotransformation with MgtT (MgtT): shown |
| O=c1c(-c2ccc(O)cc2)coc2cc(O)cc(O)c12 [Genistein] | 68 |  | modified with high yields | 72 |  |
| O=c1c(O)c(-c2ccc(O)c(O)c2)oc2cc(O)cc(O)c12 [Quercetin] | ~100 | shown | modified with high yields | ~100 | Conversion in GtfC biotransformation (in words) (GtfC): transformed almost completely; Conversion (%) (MgtB; listed as quercetin): approximately 100%; Reaction in biotransformation with MgtW (MgtW): shown |
| O=c1cc(-c2ccc(O)c(O)c2)oc2cc(O)cc(O)c12 [Luteolin] | 86 | shown | modified with high yields | 82 |  |
| O=c1c(O)c(-c2ccc(O)cc2)oc2cc(O)cc(O)c12 [Kaempferol] | ~100 |  | modified with high yields | ~100 | Conversion (%) (MgtB; listed as kaempferol): approximately 100% |
| COc1ccc(-c2cc(=O)c3ccc(O)cc3o2)cc1 [Pratol] |  |  |  |  | Conversion in GtfC biotransformation (in words) (GtfC): converted weakly |
| Cc1cc(=O)c2c(O)cc(O)cc2o1 [noreugenin] |  | shown |  |  |  |
| O=C(CCc1ccc(O)cc1)c1c(O)cc(O)cc1O [phloretin] |  | shown |  |  | Reaction in biotransformation with MgtW (MgtW): shown; Reaction in biotransformation with MgtT (MgtT): shown |
| Cc1cc(=O)oc2cc(O)ccc12 [4-Methylumbelliferone, 7-Hydroxy-4-methylcoumarin] |  |  |  |  | Reaction in biotransformation with MgtT (MgtT): shown |
| O=C(/C=C/c1ccc(O)cc1)OC[C@H]1O[C@@H](Oc2c(-c3ccc(O)cc3)oc3cc(O)cc(O)c3c2=O)[C@H](O)[C@@H](O)[C@@H]1O [Tiliroside, kaempferol-3-O-6″-coumaroyl-glucoside] |  |  | modified with high yields | 83 |  |
